Experimental data reported in patent publication US10195174B2, “Carbonic anhydrase IX-related markers and use thereof” (SIGNALCHEM LIFESCIENCES CORPORATION, priority 2011, dated 2019).

Experiments:
[1] = system: parental 4T1 cell line; experiment: Tumorsphere (TS) formation from doubling dilutions, minimum number of cells required to form a TS; format: cell-based, mouse; conditions: parental 4T1, hypoxia, 7 days, 200 μM CAI17 (FIG. 6) vs vehicle
Method: FIG. 6 is a graph of the number of cells required to initiate TS growth. Parental 4T1 were seeded at doubling dilutions and cultured under TS-forming conditions with 200 μM CAI17 or vehicle added, in normoxia or hypoxia. Mean±SEM of three independent experiments is shown. Statistical significance was confirmed using T-test, *P<0.001, **P<0.0060.
For culture in hypoxia, cells were maintained in 1% O2 and 5% CO2 balanced with N2 at 37 degrees C. in a humidified incubator in a sealed anaerobic workstation. Stable depletion of murine CAIX in 4T1 cells was carried out as described previously (Lou, McDonald et al. 2011).
Cultured 4T1 cells were grown as monolayers with twice weekly sub-cultivation in DMEM (Gibco) containing 5% fetal bovine serum (FBS) (Sigma). Subsequently, parental, shNS and shCAIX 4T1 were cultured as Tumor Spheres (TSs) in Mammocult™ media (StemCell Technologies, Vancouver, B.C., Canada) as per the manufacturer's instructions (Lock, McDonald et al. 2012). Alternatively, for spinner culture TS growth, monolayer cells were trypsinized and single-cell suspensions were incubated at 2×10^5 to 4×10^5 cells/ml in sealed glass spinner culture flasks (Bellco, Vineland, N.J.) under constant rotation, at 150 RPM, 37° C. in DMEM (5% FBS) pre-equilibrated to 5% CO2 as previously described (Oloumi, MacPhail et al. 2000). Cultures were grown for up to 3 weeks. […]

[2] = system: MDA-MB-231 LM2-4Luc+ primary breast tumor xenografts; experiment: Primary tumor growth of orthotopic breast tumor xenografts; format: in vivo, NOD/SCID mice; conditions: 38 mg/kg MST-104 or 30 mg/kg MST-205, vs vehicle controls, n=8/group
Method: FIG. 21 is a graphical representation of in vivo tumor growth. MDA-MB-231 LM2-4luc+ were implanted orthotopically into NOD/SCID mice. When tumors reached an average of […], animals received either vehicle, 38 mg/kg MST-104 or 30 mg/kg MST-205. Subsequent tumor growth was monitored. n=8/group.*P<0.02, **P<0.01.
All animal procedures and studies were carried out in accordance with protocols approved by the Institution Animal Care Committee at the BC Cancer Research Centre and the University of British Columbia (Vancouver, BC, Canada). For primary breast tumor xenografts, 2×10^6 MDA-MB-231 LM2-4Luc+ variant cells were suspended in a 50% Matrigel™/PBS solution and implanted orthotopically in 6-8 week-old female NOD.CB17-prkdcscid/J mice as previously described (Lou, McDonald et al. 2011). Therapy was initiated when tumors reached 200 mm^3. Primary tumor growth rates were calculated from caliper measurements using the modified ellipsoid formula (L×W2)/2. Tumor formation and metastasis progression was monitored and quantified using bioluminescent imaging as previously described (Lou, McDonald et al. 2011).
To evaluate the effect of CAIX inhibition on tumor growth and cancer stem cell expansion in vivo, primary breast tumor xenografts were established using a variant of the MDA-MB-231 cell line, MDA-MB-231 LM2-4Luc+. […] Tumor growth was assessed by caliper measurement and IVIS imaging.

[3] = system: parental 4T1 CD44+CD24−/low cells; experiment: E-cadherin immunostaining of FACS-sorted 4T1 populations cultured in hypoxia with or without CAIX inhibitor; format: cell-based, mouse; conditions: hypoxia 5 days, 50 μM MST-104, vs vehicle
Method: FIG. 20 are images of parental 4T1 cells cultured as TSs in normoxia, disaggregated, stained for CD44, CD24 and collected by FACS. Viable CD44+CD24−/low or CD44−CD24+ cells were collected and cultured on glass coverslips in hypoxia for 5 days, with and without 50 μM MST-104, fixed and assessed by immunostaining for expression of E-cadherin.
4T1 TSs were incubated with trypsin, washed once in HF buffer (HBSS containing 2% Fetal Bovine Serum), then stained with anti-CD24-APC and anti-CD44-PECy7 using 0.3 μl of antibody per […] in 100 ul HF, and incubated on ice for 10 min. Following incubation, cells were washed once with HF buffer and resuspended in 300 ul HF buffer containing 4′,6-diamidino-2-phenylindole (DAPI; final concentration, 1 μg/ml). Cells were separated on an Aria™ cell sorter (BD Biosciences, San Jose, Calif., USA). Live cells were gated on the basis of forward and side scatter, and single cells were gated on the basis of forward scatter and pulse width. Gates were determined by analysis of unstained cells, isotype specific controls, and single stains. The CD44+CD24−/low or […] cells were not assessed for purity due to the low numbers of cells obtained. The cell counter of the flow cytometers was used to determine cell numbers. Cells were collected into DMEM media or HF buffer. […]

[4] = system: mTORC1 signaling pathway in MDA-MB-231 LM2-4Luc+ tumor cells; experiment: Western blot of mTOR pathway components in tumor cells isolated from treated tumor-bearing mice; set-up: species or system NOD/SCID mice; conditions: in vivo treated tumors
Text: Levels of expression of Actin and GAPDH are shown as loading controls.
To assess the effect of inhibition of CAIX activity on the mTOR pathway by breast cancer cells in vivo, orthotopic human primary breast tumors using MDA-MB-231 LM2-4Luc^+ cells were established in NOD/SCID mice and treated tumor-bearing animals with vehicle or the CAIX-specific inhibitor MST-104. At the experimental end point, primary tumors were removed, dissociated and viable tumor cells lysed and subjected to Western blotting (Lock, McDonald et al. 2012). […] Raptor expression was not regulated following CAIX inhibition in vivo (Raptor/Actin densitometry: Vehicle 0.64 mean±0.05 SEM; U-104 mean 0.69±0.14 SEM).

[5] = system: EpCAM+ population of MDA-MB-231 LM2-4Luc+ tumors; experiment: EpCAM+ cancer stem cell population of excised primary tumors by FACS; format: in vivo, NOD/SCID mice; conditions: 27 days, 38 mg/kg MST-104 or 30 mg/kg MST-205, vs vehicle (mean 10% EpCAM+)
Method: FIGS. 22A and 22B are representative FACS plots (FIG. 22A) and a bar graph (FIG. 22B), showing the mean changes in EpCAM+ cells±SEM, from 3 mice. MDA-MB-231 LM2-4luc+ were implanted orthotopically into NOD/SCID mice. When tumors reached an average of […], animals received either vehicle or 38 mg/kg MST-104. After 27 days, primary tumors were removed, dissociated and EpCAM+ cell population assessed by FACS analysis. Statistical significance was confirmed using T-test. ***P<0.0331, **P<0.0224.
FIGS. 23A and 23B are representative FACS plots (FIG. 23A) and a bar graph (FIG. 23B) showing MDA-MB-231 LM2-4luc+ cells that were implanted orthotopically into NOD/SCID mice. […] After 27 days, primary tumors were removed, dissociated and EpCAM+ cell population assessed by FACS analysis. […]
(§1) All animal procedures and studies were carried out in accordance with protocols approved by the Institution Animal Care Committee at the BC Cancer Research Centre and the University of British Columbia (Vancouver, BC, Canada). […] Primary tumor growth rates were calculated from caliper measurements using the modified ellipsoid formula (L×W2)/2. Tumor formation and metastasis progression was monitored and quantified using bioluminescent imaging as previously described (Lou, McDonald et al. 2011).
The effect of CAIX inhibition on the primary tumor cancer stem cell population in vivo was quantified. […]

[6] = system: MDA-MB-231 LM2-4 breast cancer cells; experiment: CAIX inhibitor with and without paclitaxel: tumor volume, lung metastases (IVIS) and EpCAM+ population (FACS); format: in vivo, NOD-SCID mice; conditions: tumors excised at humane end point, vs vehicle controls, three tumors per group
Method: MDA-MB-231 LM2-4 Luc+ cells were implanted into NOD/SCID mice, tumors were established for 10 days and treatment was then initiated. Paclitaxel was administered by i.v. injection and MST-104 was provided by i.p. injection according to the dosing schedule outlined in the graph (arrows). n=7-8/group. *P<0.02, **P<0.002.
Heat maps indicating metastases are overlaid on grayscale images of the lungs.
The mean total photon flux±SEM for each group is shown.
FIGS. 29A-29E show representative FACS data. NOD-SCID mice mammary fat pad were inoculated with MDA-MB-231 LM2-4 breast cancer cells. Mice were IV dosed with Paclitaxel, or MST-104, or both drugs in combination, or vehicle. At the humane end point, tumours were excised and the viable EpCAM positive population was assessed by FACS.
At the humane end point, tumors were excised and the viable EpCAM positive population was assessed by FACS. […]
as §1, with “2011). […]” for “2011).”

| Compound | number of seeding cells required to form a TS [1] | primary tumor growth (tumor volume) [2] | E-cadherin staining [3] | Raptor expression ([4]; Western blot, vs vehicle) | expression of the mTORC1 component mTOR ([4]; Western blot, vs vehicle) | mTORC1 signaling pathway ([4]; Western blot, vs vehicle) | phosphorylation and expression of 4EBP1 ([4]; Western blot, vs vehicle) | phosphorylation of Ser939 TSC2 ([4]; Western blot, vs vehicle) | Raptor/Actin densitometry ([4]; mean ± SEM (vehicle 0.64 ± 0.05)) | EpCAM+ population of primary tumors [5] | viable EpCAM positive population (mean percentage of EpCAM+ CSC) [6] |
| --- | --- | --- | --- | --- | --- | --- | --- | --- | --- | --- | --- |
| NS(=O)(=O)c1ccc(CCNC(=S)Nc2ccc(-c3c4ccc(=O)cc-4oc4cc(O)ccc34)c(C(=O)O)c2)cc1 [CAI017] | significantly increased |  |  |  |  |  |  |  |  |  |  |
| NS(=O)(=O)c1ccc(NC(=O)Nc2ccc(F)cc2)cc1 [MST-104] |  | significant inhibition of primary tumor growth | robust E-cadherin staining | not regulated | abolished | inhibition of the mTORC1 signaling pathway | depleted phosphorylation and expression | reduced phosphorylation | 0.69±0.14 | statistically significant reduced EpCAM+ population | significant decrease |
| CC(=O)O[C@H]1C(=O)[C@@]2(C)[C@H]([C@H](OC(=O)c3ccccc3)[C@]3(O)C[C@H](OC(=O)[C@H](O)[C@@H](NC(=O)c4ccccc4)c4ccccc4)C(C)=C1C3(C)C)[C@]1(OC(C)=O)CO[C@@H]1C[C@@H]2O [paclitaxel, reference compound] |  |  |  |  |  |  |  |  |  |  | increase in the mean percentage of EpCAM+CSC |
